For orientation: viability means a per cent measure of how many cells are alive, often set against a control. The term MIC denotes the lowest concentration that inhibits growth of the organism. Lower therefore signals greater potency.

Here are results for 17 compounds from ChEMBL document CHEMBL1140645, “Synthesis and in vitro activity of 2-thiazolylhydrazone derivatives compared with the activity of clotrimazole against clinical isolates of Candida spp” (Bioorg Med Chem Lett, 2007).

A short description of data set [1]: Cytotoxicity against human EAhy926 cells assessed as cell survival fraction at 50 ug/ml after 24 hrs by trypan blue exclusion test. The conditions noted are these: ea.hy 926, at 50 µg/mL.
Data set [2] concerns [Candida] sake. Description: Antifungal activity against Candida sake after 24 hrs by broth microdilution method. In kind it is functional. As to conditions: Fermentozyma sake. A general note: Broth dilution looks for growth in wells or tubes with falling amounts of substance.
A short description of data set [3]: Cytotoxicity against human EAhy926 cells assessed as cell survival fraction at 0.5 ug/ml after 24 hrs by trypan blue exclusion test. As to conditions: ea.hy 926, at 0.5 µg/mL.
Data set [4] deals with Candida tropicalis. Description: Antifungal activity against Candida tropicalis after 24 hrs by broth microdilution method. In kind it is functional.
Data set [5] has as its system Pichia kudriavzevii. Description: Antifungal activity against Candida krusei after 24 hrs by broth microdilution method. Type of data set: functional.
The subject of data set [6] is Candida parapsilosis. Description: Antifungal activity against Candida parapsilosis after 24 hrs by broth microdilution method. Type of data set: functional. The conditions noted are these: Lodderomyces parapsilosis.
Data set [7] has as its system Candida albicans. Description: Antifungal activity against Candida albicans after 24 hrs by broth microdilution method. In kind it is functional.
Data set [8] concerns Nakaseomyces glabratus. Description: Antifungal activity against Candida glabrata after 24 hrs by broth microdilution method. Type of data set: functional.
Data set [9] in a line: Cytotoxicity against human EAhy926 cells assessed as cell survival fraction at 5 ug/ml after 24 hrs by trypan blue exclusion test. The conditions noted are these: ea.hy 926, at 5 µg/mL.
Data set [10] in a line: Cytotoxicity against human EAhy926 cells assessed as cell survival fraction at 0.05 ug/ml after 24 hrs by trypan blue exclusion test. As to conditions: ea.hy 926, at 0.05 µg/mL.

Values after ≈ are worked out from the molar mass of the structure shown.

Turning to `Cc1ccc(-c2csc(NN=C3CCCC3)n2)cc1`, the viability at 24 h, 50 ug/ml in data set [1] worked out at 75%. In addition, the MIC worked out at 16 µg/mL (≈ 59 µM) in [2]; 4 µg/mL (≈ 14.7 µM) in data set [4]; 64 µg/mL (≈ 236 µM) in data set [5]; 128 µg/mL (≈ 472 µM) in data set [6]; 0.25 µg/mL (≈ 0.921 µM) in data set [7]; 0.5 µg/mL (≈ 1.84 µM) in [8]. Also, in data set [3], the viability at 24 h, 0.5 ug/ml was found to be 82%. Moreover, in data set [9], the viability at 24 h, 5 ug/ml was 80%. For the same compound, the viability at 24 h, 0.05 ug/ml in data set [10] was 85.4%.

Regarding `Clc1ccc(-c2csc(NN=C3CCCC3)n2)cc1`, the viability at 24 h, 50 ug/ml in [1] stood at 64.9%. Besides, the MIC in data set [2] was determined as 16 µg/mL (≈ 54.8 µM); in data set [4], 32 µg/mL (≈ 110 µM); in data set [5], 64 µg/mL (≈ 219 µM); in data set [6], 8 µg/mL (≈ 27.4 µM); in data set [7] it was 0.25 µg/mL (≈ 0.857 µM); in [8], 0.5 µg/mL (≈ 1.71 µM). Moreover, in data set [3], the viability at 24 h, 0.5 ug/ml worked out at 89.2%. Besides, the viability at 24 h, 5 ug/ml in data set [9] was found to be 81%. Also, the viability at 24 h, 0.05 ug/ml in [10] was found to be 86%.

As to `Brc1ccc(-c2csc(NN=C3CCCC3)n2)cc1`, the minimal inhibitory concentration (MIC) in data set [2] is 32 µg/mL (≈ 95.2 µM); in data set [4], no less than 128 µg/mL; in [5], greater than 128 µg/mL; in data set [6], 128 µg/mL (≈ 381 µM); in data set [7] it was 2 µg/mL (≈ 5.95 µM); in data set [8] it was 2 µg/mL (≈ 5.95 µM).

`CC1CCCC/C1=N\Nc1nc(-c2cccc([N+](=O)[O-])c2)cs1` (stereo unspecified): in [1], the viability at 24 h, 50 ug/ml is 83.3%. Besides, the MIC in [2] is 16 µg/mL (≈ 48.4 µM); in [4], 64 µg/mL (≈ 194 µM); in [5] it was greater than 128 µg/mL; in [6], 8 µg/mL (≈ 24.2 µM); in data set [7], 0.5 µg/mL (≈ 1.51 µM); in data set [8], 16 µg/mL (≈ 48.4 µM). For the same compound, in data set [3], the viability at 24 h, 0.5 ug/ml was 86%. Moreover, the viability at 24 h, 5 ug/ml in [9] came out at 85.7%. Moreover, the viability at 24 h, 0.05 ug/ml in data set [10] was found to be 88.8%.

In the case of `COc1ccc(-c2csc(NN=C3CCCC3)n2)cc1`, the viability at 24 h, 50 ug/ml in data set [1] amounted to 66%. In addition, the MIC in [2] amounted to 32 µg/mL (≈ 111 µM); in data set [4], 64 µg/mL (≈ 223 µM); in data set [5], 32 µg/mL (≈ 111 µM); in data set [6] it was 8 µg/mL (≈ 27.8 µM); in [7], 0.5 µg/mL (≈ 1.74 µM); in [8], 2 µg/mL (≈ 6.96 µM). Further, in data set [3], the viability at 24 h, 0.5 ug/ml worked out at 82.4%. Moreover, the viability at 24 h, 5 ug/ml in data set [9] amounted to 76.6%. Moreover, in data set [10], the viability at 24 h, 0.05 ug/ml amounted to 85%.

Consider `O=[N+]([O-])c1ccc(-c2csc(NN=C3CCCC3)n2)cc1`, for which the MIC was 16 µg/mL (≈ 52.9 µM) in data set [2]; 64 µg/mL (≈ 212 µM) in data set [4]; 32 µg/mL (≈ 106 µM) in data set [5]; greater than 128 µg/mL in [6]; 8 µg/mL (≈ 26.5 µM) in data set [7]; 0.5 µg/mL (≈ 1.65 µM) in data set [8].

On to `CC1CCCC/C1=N\Nc1nc(-c2ccc(Br)cc2)cs1` (stereo unspecified), for which the MIC worked out at 16 µg/mL (≈ 43.9 µM) in data set [2]; 32 µg/mL (≈ 87.8 µM) in [4]; 64 µg/mL (≈ 176 µM) in data set [5]; 8 µg/mL (≈ 22 µM) in data set [6]; 4 µg/mL (≈ 11 µM) in data set [7]; 2 µg/mL (≈ 5.49 µM) in data set [8].

`CC1CCCC/C1=N\Nc1nc(-c2ccc(-c3ccccc3)cc2)cs1` (stereo unspecified): the MIC in data set [2] is 16 µg/mL (≈ 44.3 µM); in data set [4], 64 µg/mL (≈ 177 µM); in data set [5], 16 µg/mL (≈ 44.3 µM); in data set [6], 16 µg/mL (≈ 44.3 µM); in data set [7], 32 µg/mL (≈ 88.5 µM); in data set [8], 64 µg/mL (≈ 177 µM).

With `Cc1ccc(-c2csc(N/N=C3\CCCC(C)C3)n2)cc1` (stereo unspecified), the viability at 24 h, 50 ug/ml in [1] stood at 38.5%. The MIC was 2 µg/mL (≈ 6.68 µM) in [2]; 0.5 µg/mL (≈ 1.67 µM) in data set [4]; 0.5 µg/mL (≈ 1.67 µM) in [5]; 0.5 µg/mL (≈ 1.67 µM) in data set [6]; 0.5 µg/mL (≈ 1.67 µM) in data set [7]; 32 µg/mL (≈ 107 µM) in data set [8]. In addition, in data set [3], the viability at 24 h, 0.5 ug/ml worked out at 83.3%. The viability at 24 h, 5 ug/ml in data set [9] was determined as 72.7%. In data set [10], the viability at 24 h, 0.05 ug/ml was determined as 84%.

In the case of `CC1CCC/C(=N\Nc2nc(-c3ccc(C#N)cc3)cs2)C1` (stereo unspecified), the viability at 24 h, 50 ug/ml in data set [1] worked out at 25%. Further, the MIC in [2] is 4 µg/mL (≈ 12.9 µM); in [4] it was 2 µg/mL (≈ 6.44 µM); in data set [5] it was 4 µg/mL (≈ 12.9 µM); in data set [6], 0.5 µg/mL (≈ 1.61 µM); in data set [7] it was 0.5 µg/mL (≈ 1.61 µM); in [8] it was greater than 128 µg/mL. Further, in data set [3], the viability at 24 h, 0.5 ug/ml stood at 68.7%. In addition, the viability at 24 h, 5 ug/ml in [9] was found to be 50%. Further, the viability at 24 h, 0.05 ug/ml in data set [10] was determined as 68.8%.

Turning to `c1ccc(-c2csc(NN=C3CCCCCC3)n2)cc1`, the viability at 24 h, 50 ug/ml in [1] stood at 54.5%. In addition, the MIC in data set [2] is 16 µg/mL (≈ 56.1 µM); in data set [4], 8 µg/mL (≈ 28 µM); in [5] it was 8 µg/mL (≈ 28 µM); in data set [6], 8 µg/mL (≈ 28 µM); in data set [7] it was 0.5 µg/mL (≈ 1.75 µM); in [8], greater than 128 µg/mL. In addition, the viability at 24 h, 0.5 ug/ml in [3] was found to be 87.5%. Also, the viability at 24 h, 5 ug/ml in data set [9] was determined as 80%. In [10], the viability at 24 h, 0.05 ug/ml is 94.7%.

With `CC1CCC/C(=N\Nc2nc(-c3ccc(Cl)cc3)cs2)C1` (stereo unspecified), the viability at 24 h, 50 ug/ml in data set [1] was 28.6%. For the same compound, the MIC is 2 µg/mL (≈ 6.25 µM) in data set [2]; 2 µg/mL (≈ 6.25 µM) in data set [4]; 4 µg/mL (≈ 12.5 µM) in data set [5]; 1 µg/mL (≈ 3.13 µM) in data set [6]; 0.5 µg/mL (≈ 1.56 µM) in [7]; greater than 128 µg/mL in [8]. In [3], the viability at 24 h, 0.5 ug/ml is 70%. In addition, the viability at 24 h, 5 ug/ml in data set [9] was 50%. Besides, the viability at 24 h, 0.05 ug/ml in data set [10] worked out at 73%.

Take `COc1ccc(-c2csc(N/N=C3\CCCC(C)C3)n2)cc1` (stereo unspecified): in data set [1], the viability at 24 h, 50 ug/ml stood at 54.5%. In addition, the MIC in [2] is 8 µg/mL (≈ 25.4 µM); in data set [4], 2 µg/mL (≈ 6.34 µM); in [5], 2 µg/mL (≈ 6.34 µM); in data set [6], 1 µg/mL (≈ 3.17 µM); in data set [7], 0.5 µg/mL (≈ 1.59 µM); in [8], greater than 128 µg/mL. Also, the viability at 24 h, 0.5 ug/ml in data set [3] was 80%. Also, in [9], the viability at 24 h, 5 ug/ml is 72.7%. In data set [10], the viability at 24 h, 0.05 ug/ml came to 83.3%.

For `CC1CCC/C(=N\Nc2nc(-c3ccc(F)cc3)cs2)C1` (stereo unspecified), the viability at 24 h, 50 ug/ml in data set [1] was determined as 52.9%. Further, the MIC in [2] is 8 µg/mL (≈ 26.4 µM); in data set [4], 4 µg/mL (≈ 13.2 µM); in [5], 4 µg/mL (≈ 13.2 µM); in [6] it was 1 µg/mL (≈ 3.3 µM); in [7], 0.5 µg/mL (≈ 1.65 µM); in data set [8], greater than 128 µg/mL. Further, the viability at 24 h, 0.5 ug/ml in [3] came to 76.9%. Further, in data set [9], the viability at 24 h, 5 ug/ml was 60%. Besides, in [10], the viability at 24 h, 0.05 ug/ml was found to be 80%.

For `c1ccc(-c2ccc(-c3csc(NN=C4CCCC4)n3)cc2)cc1`, the MIC in [2] is 32 µg/mL (≈ 96 µM); in data set [4] it was 64 µg/mL (≈ 192 µM); in [5], greater than 128 µg/mL; in data set [6], greater than 128 µg/mL; in data set [7] it was 16 µg/mL (≈ 48 µM); in data set [8], greater than 128 µg/mL.

As for `N#Cc1ccc(-c2csc(NN=C3CCCC3)n2)cc1`, the viability at 24 h, 50 ug/ml in data set [1] came to 76%. The MIC in data set [2] was determined as 32 µg/mL (≈ 113 µM); in data set [4], 32 µg/mL (≈ 113 µM); in data set [5] it was 32 µg/mL (≈ 113 µM); in data set [6] it was 128 µg/mL (≈ 453 µM); in data set [7], 2 µg/mL (≈ 7.08 µM); in data set [8], 0.5 µg/mL (≈ 1.77 µM). Also, in data set [3], the viability at 24 h, 0.5 ug/ml was 84.7%. The viability at 24 h, 5 ug/ml in data set [9] is 81%. Also, the viability at 24 h, 0.05 ug/ml in [10] amounted to 88.9%.

In the case of `O=[N+]([O-])c1cccc(-c2csc(NN=C3CCCC3)n2)c1`, the MIC was 16 µg/mL (≈ 52.9 µM) in data set [2]; 64 µg/mL (≈ 212 µM) in data set [4]; greater than 128 µg/mL in [5]; greater than 128 µg/mL in [6]; 1 µg/mL (≈ 3.31 µM) in data set [7]; 0.5 µg/mL (≈ 1.65 µM) in data set [8].
